Data taken from US7473790B2 (Pfizer Inc., priority 2003, dated 2009).

Each molecule was assayed against T1, HCV polymerase (Hepatitis C virus genotype 1b, UniProt P26663) (assay: HCV polymerase primer/template-directed transcription assay (32P-GTP incorporation, filter binding)). Conditions: @ 20 uM compound; given where IC50 was impractical to calculate; read-out: percent inhibition.
T1 construct: 2.5 pmoles (0.15 μg) HCV polymerase protein in a final volume of 75 μL
Type: biochemical
Outline: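 Recombinant genotype 1b polymerase (30 nM) extended biotin-dG12 primer on poly(rC)300 template with 1 μM GTP plus α-32P-GTP, pH 7.2, 10 mM MgCl2, 30 min at 30° C, 1% DMSO final. Products captured on DE filters and counted. IC50 fitted from triplicate cpm, with a tight-binding correction applied below 200 nM.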

T1 sequence (P26663 2420-3010): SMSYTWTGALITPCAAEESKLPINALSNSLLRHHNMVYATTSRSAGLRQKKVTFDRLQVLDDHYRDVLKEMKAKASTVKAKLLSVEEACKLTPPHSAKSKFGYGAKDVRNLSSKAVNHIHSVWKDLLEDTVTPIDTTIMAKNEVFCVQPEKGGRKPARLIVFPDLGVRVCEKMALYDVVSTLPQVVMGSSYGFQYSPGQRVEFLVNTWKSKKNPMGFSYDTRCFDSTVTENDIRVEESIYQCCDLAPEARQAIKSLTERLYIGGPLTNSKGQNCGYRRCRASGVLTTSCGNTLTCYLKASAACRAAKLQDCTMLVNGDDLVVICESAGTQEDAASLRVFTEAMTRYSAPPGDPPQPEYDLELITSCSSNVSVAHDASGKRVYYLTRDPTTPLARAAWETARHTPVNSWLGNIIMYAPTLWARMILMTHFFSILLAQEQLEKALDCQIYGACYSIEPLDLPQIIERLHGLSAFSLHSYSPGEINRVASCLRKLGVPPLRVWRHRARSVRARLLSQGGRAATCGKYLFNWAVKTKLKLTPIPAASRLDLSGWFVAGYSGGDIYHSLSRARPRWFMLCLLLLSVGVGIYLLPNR

Going from `COC(=O)Cc1cccc(CCC2(C3CCCC3)CC(=O)CC(=O)O2)c1` (stereo not drawn) [A(67), {3-[2-(2-Cyclopentyl-4,6-dioxo-tetrahydro-pyran-2-yl)-ethyl]-phenyl}-acetic acid methyl ester] to `O=C1CC(=O)OC(CCc2ccccn2)(C2CCCC2)C1` (stereo not drawn) [A(82), 6-Cyclopentyl-6-(2-pyridin-2-yl-ethyl)-dihydro-pyran-2,4-dione], the inhibition at 20 µM falls from 24% to 11%.

Same assay, conditions: @ 50 uM compound; given where IC50 was impractical to calculate; read-out: percent inhibition

`COc1ccc(CCC2(C3CCCC3)CC(=O)CC(=O)O2)c(C(C)=O)c1` (stereo not drawn) [A(61), 6-[2-(2-acetyl-4-methoxyphenyl)ethyl]-6-cyclopentyldihydro-2H-pyran-2,4(3H)-dione] was tested, and the inhibition at 50 µM was 40%.

Same assay, conditions: IC50, recombinant HCV polymerase; 30 minutes at 30° C.; concentration giving 50% inhibition of polymerase-directed transcription

With `CC(C)(C#N)c1ccc(CCC2(C3CCCC3)CC(=O)CC(=O)O2)cc1F` (stereo not drawn) [A(81), 2-{4-[2-(2-Cyclopentyl-4,6-dioxo-tetrahydro-pyran-2-yl)-ethyl]-2-fluoro-phenyl}-2-methyl-propionitrile] the IC50 was 0.14 µM.

Same assay, conditions: recombinant HCV polymerase; 30 minutes at 30° C.; concentration giving 50% inhibition of polymerase-directed transcription; read-out: IC50

`O=C1CC(=O)OC(CCc2ccc(OC(F)F)cc2)(C2CCCC2)C1` (stereo not drawn) [A(58), 6-Cyclopentyl-6-[2-(4-difluoromethoxy-phenyl)-ethyl]-dihydro-pyran-2,4-dione] and `CCCOc1ccc(CCC2(C3CCCC3)CC(=O)CC(=O)O2)cc1` (stereo not drawn) [A(60), 6-Cyclopentyl-6-[2-(4-propoxy-phenyl)-ethyl]-dihydro-pyran-2,4-dione] are within 1.5-fold of each other in IC50: 6.5 µM for the first, 8.7 µM for the second.

First: O=C1CC(=O)OC(CCc2ccc3c(c2)OC(F)(F)C(F)(F)O3)(C2CCCC2)C1 (stereo not drawn) [A(59), 6-Cyclopentyl-6-[2-(2,2,3,3-tetrafluoro-2,3-dihydro-benzo[1,4]dioxin-6-yl)-ethyl]-dihydro-pyran-2,4-dione]
Second: CC1(C)COc2ccc(CCC3(C4CCCC4)CC(=O)CC(=O)O3)cc21 (stereo not drawn) [A(76), 6-Cyclopentyl-6-[2-(3,3-dimethyl-2,3-dihydro-benzofuran-5-yl)-ethyl]-dihydro-pyran-2,4-dione]
The IC50 of the first is 1.8-fold lower: 3.2 µM for the first, 5.8 µM for the second. The first is the more potent here.

Going from `CCC(=O)c1cc(OC)ccc1CCC1(C2CCCC2)CC(=O)CC(=O)O1` (stereo not drawn) [A(62), 6-cyclopentyl-6-[2-(4-methoxy-2-propionylphenyl)ethyl]dihydro-2H-pyran-2,4(3H)-dione] to `CCc1cc(CCC2(C3CCCC3)CC(=O)CC(=O)O2)ccc1F` (stereo not drawn) [A(65), 6-cyclopentyl-6-[2-(3-ethyl-4-fluorophenyl)ethyl]dihydro-2H-pyran-2,4(3H)-dione], the IC50 falls from 8.3 µM to 1.3 µM (6.4-fold). The second is the more potent here.

First: CC(C)c1ccc(CCC2(C3CCCC3)CC(=O)CC(=O)O2)cc1Cl (stereo not drawn) [A(63), 6-[2-(3-chloro-4-isopropylphenyl)ethyl]-6-cyclopentyldihydro-2H-pyran-2,4(3H)-dione]
Second: CC(C)c1ccc(CCC2(C3CCCC3)CC(=O)CC(=O)O2)cc1F (stereo not drawn) [A(64), 6-cyclopentyl-6-[2-(3-fluoro-4-isopropylphenyl)ethyl]dihydro-2H-pyran-2,4(3H)-dione]
The IC50 of the first is 2.8-fold higher: 11 µM for the first, 4 µM for the second.

Compared with `CCc1cccc(CCC2(C3CCCC3)CC(=O)CC(=O)O2)c1` (stereo not drawn) [A(66), 6-Cyclopentyl-6-[2-(3-ethyl-phenyl)-ethyl]-dihydro-pyran-2,4-dione], `N#CCc1cccc(CCC2(C3CCCC3)CC(=O)CC(=O)O2)c1` (stereo not drawn) [A(70), {3-[2-(2-Cyclopentyl-4,6-dioxo-tetrahydro-pyran-2-yl)-ethyl]-phenyl}-acetonitrile] is 2.6-fold higher in IC50: 3.6 µM for the first, 9.4 µM for the second. The first is the more potent here.

Going from `CC1(C)C(=O)Oc2ccc(CCC3(C4CCCC4)CC(=O)CC(=O)O3)cc21` (stereo not drawn) [A(68), 6-Cyclopentyl-6-[2-(3,3-dimethyl-2-oxo-2,3-dihydro-benzofuran-5-yl)-ethyl]-dihydro-pyran-2,4-dione] to `CCc1cc(CCC2(C3CCCC3)CC(=O)CC(=O)O2)ccc1N(C)S(C)(=O)=O` (stereo not drawn) [A(87)], the IC50 falls from 3.4 µM to 0.89 µM (3.8-fold).

First: COC(=O)C1(c2cccc(CCC3(C4CCCC4)CC(=O)CC(=O)O3)c2)CC1 (stereo not drawn) [A(69), 1-{3-[2-(2-Cyclopentyl-4,6-dioxo-tetrahydro-pyran-2-yl)-ethyl]-phenyl}-cyclopropanecarboxylic acid methyl ester]
Second: O=C1CC(=O)OC(CCc2cccc(CCO)c2)(C2CCCC2)C1 (stereo not drawn) [A(80), 6-Cyclopentyl-6-{2-[3-(2-hydroxy-ethyl)-phenyl]-ethyl}-dihydro-pyran-2,4-dione]
The IC50 of the first is 2-fold lower: 9.9 µM for the first, 20 µM for the second. The first is the more potent here.

Compared with `CC(C)(CNC(=O)c1cc[nH]n1)c1cccc(CCC2(C3CCCC3)CC(=O)CC(=O)O2)c1` (stereo not drawn) [A(71), 1H-Pyrazole-3-carboxylic acid (2-{3-[2-(2-cyclopentyl-4,6-dioxo-tetrahydro-pyran-2-yl)-ethyl]-phenyl}-2-methyl-propyl)-amide], `CC(C)(CNC(=O)c1cnc(O)cn1)c1cccc(CCC2(C3CCCC3)CC(=O)CC(=O)O2)c1` (stereo not drawn) [A(74), 5-Hydroxy-pyrazine-2-carboxylic acid (2-{3-[2-(2-cyclopentyl-4,6-dioxo-tetrahydro-pyran-2-yl)-ethyl]-phenyl}-2-methyl-propyl)-amide] is 1.6-fold lower in IC50: 1.9 µM for the first, 1.2 µM for the second.

Compared with `CC(C)(CNC(=O)CCc1ccco1)c1cccc(CCC2(C3CCCC3)CC(=O)CC(=O)O2)c1` (stereo not drawn) [A(72), N-(2-{3-[2-(2-Cyclopentyl-4,6-dioxo-tetrahydro-pyran-2-yl)-ethyl]-phenyl}-2-methyl-propyl)-3-furan-2-yl-propionamide], `Cc1cc(C(=O)NCC(C)(C)c2cccc(CCC3(C4CCCC4)CC(=O)CC(=O)O3)c2)oc1C` (stereo not drawn) [A(73), 4,5-Dimethyl-furan-2-carboxylic acid (2-{3-[2-(2-cyclopentyl-4,6-dioxo-tetrahydro-pyran-2-yl)-ethyl]-phenyl}-2-methyl-propyl)-amide] is 2.2-fold higher in IC50: 1.5 µM for the first, 3.3 µM for the second.

First: N#CCC(=O)c1ccc(CCC2(C3CCCC3)CC(=O)CC(=O)O2)cc1 (stereo not drawn) [A(75), 3-{4-[2-(2-Cyclopentyl-4,6-dioxo-tetrahydro-pyran-2-yl)-ethyl]-phenyl}-3-oxo-propionitrile]
Second: O=C1CC(=O)OC(CCc2ccc(CCO)cc2)(C2CCCC2)C1 (stereo not drawn) [A(79), 6-Cyclopentyl-6-{2-[4-(2-hydroxy-ethyl)-phenyl]-ethyl}-dihydro-pyran-2,4-dione]
The IC50 of the first is 7.1-fold higher: 7.1 µM for the first, 1 µM for the second.

`O=C1CC(=O)OC(CCc2ccc(Cc3nccs3)c(F)c2)(C2CCCC2)C1` (stereo not drawn) [A(77), 6-Cyclopentyl-6-[2-(3-fluoro-4-thiazol-2-ylmethyl-phenyl)-ethyl]-dihydro-pyran-2,4-dione] and `O=C1CC(=O)OC(CCc2cccc(Cc3nccs3)c2)(C2CCCC2)C1` (stereo not drawn) [A(78), 6-Cyclopentyl-6-[2-(3-thiazol-2-ylmethyl-phenyl)-ethyl]-dihydro-pyran-2,4-dione] are within 1.5-fold of each other in IC50: 24 µM for the first, 21 µM for the second.

First: CCC(CC)Oc1ccc(CCC2(C3CCCC3)CC(=O)CC(=O)O2)cc1Cl (stereo not drawn) [A(83), 6-{2-[3-Chloro-4-(1-ethyl-propoxy)-phenyl]-ethyl}-6-cyclopentyl-dihydro-pyran-2,4-dione]
Second: CNS(=O)(=O)c1ccc(CCC2(C3CCCC3)CC(=O)CC(=O)O2)cc1F (stereo not drawn) [A(85), 4-[2-(2-Cyclopentyl-4,6-dioxo-tetrahydro-pyran-2-yl)-ethyl]-2-fluoro-methyl-benzenesulfonamide]
The IC50 of the first is 2.3-fold lower: 5.4 µM for the first, 12.4 µM for the second. The first is the more potent here.

Compared with `CC(=O)c1ccc(CCC2(C3CCCC3)CC(=O)CC(=O)O2)s1` (stereo not drawn) [A(84), 6-[2-(5-Acetyl-thiophen-2-yl)-ethyl]-6-cyclopentyl-dihydro-pyran-2,4-dione], `N#CC1(c2ccc(CCC3(C4CCCC4)CC(=O)CC(=O)O3)cc2F)CC1` (stereo not drawn) [A(86), 1-{4-[2-(2-Cyclopentyl-4,6-dioxo-tetrahydro-pyran-2-yl)-ethyl]-2-fluoro-phenyl}-cyclopropanecarbonitrile] is 17-fold lower in IC50: 6.8 µM for the first, 0.4 µM for the second.
